Measured values reported in ChEMBL document CHEMBL1158197, “A new prenylated flavonol from the root of Petalostemon purpureus” (1996).
≈ marks a conversion by molar mass, not a printed value. Calls of active or inactive are those of the source. The calls are words filed in the database; no cut-off is given here.

Experiments:
Betapolyomavirus macacae [1] = assay: Induction of DNA-strand scission activity in SV40 form 1 DNA at 0.1 ug/mL
Betapolyomavirus macacae [2] = assay: Induction of DNA-strand scission activity in SV40 form 1 DNA at 25 ug/mL
[3] = Cytotoxicity against human BC1 cells; assay type: functional; details: read-out: ED50 (the source's name)
HT = assay: Cytotoxicity against human HT cells; assay type: functional; details: read-out: ED50 (the source's name)
Lu1 = assay: Cytotoxicity against human Lu1 cells; assay type: functional; details: read-out: ED50 (the source's name)
SK-MEL-2 = assay: Cytotoxicity against human SK-MEL-2 cells; assay type: functional; details: read-out: ED50 (the source's name)
Col2 = assay: Cytotoxicity against human Col2 cells; assay type: functional; details: read-out: ED50 (the source's name)
KB = assay: Cytotoxicity against human KB cells; assay type: functional; details: read-out: ED50 (the source's name)
[4] = Cytotoxicity against human KBVIN cells in presence of vinblastine; assay type: functional; details: read-out: ED50 (the source's name)
[5] = Cytotoxicity against human KBVIN cells in absence of vinblastine; assay type: functional; details: read-out: ED50 (the source's name)
A-431 = assay: Cytotoxicity against human A431 cells; assay type: functional; details: read-out: ED50 (the source's name)
LNCaP = assay: Cytotoxicity against human LNCAP cells; assay type: functional; details: read-out: ED50 (the source's name)
ZR-75-1 = assay: Cytotoxicity against human ZR-75-1 cells; assay type: functional; details: read-out: ED50 (the source's name)
[6] = Cytotoxicity against human U373 cells; assay type: functional, U-373MG ATCC; details: U373 MG, read-out: ED50 (the source's name)

Activity (Betapolyomavirus macacae [1])	Activity (Betapolyomavirus macacae [2])	Compound	EC50 [3] [µg/mL]	EC50 (HT) [µg/mL]	EC50 (Lu1) [µg/mL]	EC50 (SK-MEL-2) [µg/mL]	EC50 (Col2) [µg/mL]	EC50 (KB) [µg/mL]	EC50 [4] [µg/mL]	EC50 [5] [µg/mL]	EC50 (A-431) [µg/mL]	EC50 (LNCaP) [µg/mL]	EC50 (ZR-75-1) [µg/mL]	EC50 [6] [µg/mL]
Active	–	BLEOMYCIN SULFATE	–	–	–	–	–	–	–	–	–	–	–	–
–	Active	CC(C)=CCc1cc(O)c(O)c(CC=C(C)C)c1[C@H]1Oc2c(CC=C(C)C)c(O)cc(O)c2C(=O)[C@@H]1O [PETALOSTEMUMOL]	> 20	10.3 (≈ 20.3 µM)	> 20	> 20	> 20	> 20	1.2	> 20	> 20	> 20	17.1 (≈ 33.6 µM)	> 20
–	inactive	CC(C)=CCCC1(C)C=Cc2c(-c3oc4cc(O)cc(O)c4c(=O)c3O)ccc(O)c2O1 (configuration not stated) [PETALOPURPURENOL]	9.9 (≈ 22.7 µM)	7.3 (≈ 16.7 µM)	14.8 (≈ 33.9 µM)	17.1 (≈ 39.2 µM)	> 20	18.9 (≈ 43.3 µM)	1	6.7 (≈ 15.4 µM)	11.9 (≈ 27.3 µM)	14.8 (≈ 33.9 µM)	4.1 (≈ 9.39 µM)	13.3 (≈ 30.5 µM)
